Reference: US4103028A, “Complement inhibitors” (American Cyanamid Company, priority 1977, dated 1978)
Structures can show the parent of a compound that is named as a salt.

Legend:
C1 = target: T1, C1 (Homo sapiens, UniProt P09871); experiment: Test, Code 026 (C1 inhibitor), serial dilution assay; format: biochemical; conditions: In vitro; well number of a two-fold serial dilution assay, higher well number indicates higher activity; NEG = negative
T1 sequence (P09871 16-437 limits assumed): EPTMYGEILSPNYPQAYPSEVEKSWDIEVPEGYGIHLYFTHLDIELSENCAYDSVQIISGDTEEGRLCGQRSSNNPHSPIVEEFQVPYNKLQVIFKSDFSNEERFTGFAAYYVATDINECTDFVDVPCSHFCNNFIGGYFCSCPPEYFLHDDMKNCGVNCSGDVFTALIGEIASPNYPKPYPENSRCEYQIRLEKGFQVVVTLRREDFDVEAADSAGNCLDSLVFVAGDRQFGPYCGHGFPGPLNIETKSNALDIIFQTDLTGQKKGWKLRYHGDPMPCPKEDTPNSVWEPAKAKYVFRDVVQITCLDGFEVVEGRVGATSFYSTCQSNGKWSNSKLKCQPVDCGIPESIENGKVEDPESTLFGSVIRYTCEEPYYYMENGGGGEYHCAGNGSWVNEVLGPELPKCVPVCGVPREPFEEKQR
T1 sequence (P09871 438-688 limits assumed): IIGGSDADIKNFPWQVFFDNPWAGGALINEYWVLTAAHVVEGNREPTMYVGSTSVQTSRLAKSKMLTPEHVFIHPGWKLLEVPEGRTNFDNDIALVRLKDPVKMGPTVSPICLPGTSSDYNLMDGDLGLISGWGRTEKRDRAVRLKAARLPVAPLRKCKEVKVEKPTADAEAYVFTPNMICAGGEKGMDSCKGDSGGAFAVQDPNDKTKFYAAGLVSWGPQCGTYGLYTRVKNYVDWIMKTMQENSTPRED
Source text: (§1) This test measures the ability of activated […] in the presence of C4 and appropriate dilutions of the test compound. An active inhibitor protects C2 from C1 and C4; (ii) Test, Code 035 (C3-C9 inhibitor) -- This test determines the ability of the late components of human complement (C3-C9) to lyse EAC 142 in the presence of appropriate dilutions of the test compound. An active inhibitor protects EAC 142 from lysis by human C3-C9; (iii) Test, Code 036 (C-Shunt inhibitor) -- In this test human erythrocytes rendered fragile are lysed in autologous serum via the shunt pathway activated by cobra venom factor in the presence of appropriate dilutions of the test compound. Inhibition of the shunt pathway results in failure of lysis; (iv) Forssman Vasculitis Test -- Here, the well known complement dependent lesion, Forssman vascultitis, is produced in guinea pigs by intradermal injection of rabbit anti-Forssman antiserum. The lesion is measured in terms of diameter, edema and hemorrhage and the extent to which a combined index of these is inhibited by prior intraperitoneal injection of the test compound at 200 mg/kg is then reported, unless otherwise stated; (v) Forssman Shock Test -- Lethal shock is produced in guinea pigs by an i.v. injection of anti-Forssman antiserum and the harmonic mean death time of treated guinea pigs is compared with that of simultaneous controls; (vi) Complement Level Reduction Test -- In this test, the above dosed quinea pigs, or others, are bled for serum and the complement level is determined in undiluted serum by the capillary tube method of U.S. Pat. No. 3,876,376 and compared to undosed control guinea pigs; and (vii) Cap 50 Test -- Here, appropriate amounts of the test compound are added to a pool of guinea pig serum in vitro, after which the undiluted serum capillary tube assay referred to above is run. The concentration of compound inhibiting 50% is reported.

[1] = tested on: late components of human complement (C3-C9); experiment: Test, Code 035 (C3-C9 inhibitor), lysis of EAC 142; format: biochemical; conditions: In vitro; well number of a two-fold serial dilution assay, higher well number indicates higher activity; NEG = negative
Source text: as §1

shunt pathway = experiment: Test, Code 036 (C-Shunt inhibitor), lysis of fragile human erythrocytes in autologous serum, cobra venom factor; format: biochemical; conditions: In vitro; well number of a two-fold serial dilution assay, higher well number indicates higher activity; NEG = negative
Source text: as §1

[2] = tested on: complement level in undiluted serum; experiment: Complement Level Reduction Test; design: species or system guinea pig; conditions: In vivo, dosed guinea pigs bled for serum; capillary tube method, compared to undosed control guinea pigs
Source text: as §1

[3] = tested on: Forssman vasculitis in guinea pigs; experiment: Forssman Vasculitis Test; design: species or system guinea pig; conditions: In vivo, inhibition of combined index of lesion diameter, edema and hemorrhage, prior intraperitoneal injection at 200 mg/kg unless otherwise stated
Source text: as §1

Row | Structure (SMILES) | 026 (activity in wells) (C1) | 035 (activity in wells) [1] | 036 (activity in wells) (shunt pathway) | % Reduction Complement [2] | Forssman [3]
1 | O=C(Nc1cccc(C(=O)Nc2cc3c(O)cc(S(=O)(=O)O)cc3cc2S(=O)(=O)O)c1)Nc1cccc(C(=O)Nc2cc3c(O)cc(S(=O)(=O)O)cc3cc2S(=O)(=O)O)c1 [3,3'-[Ureylenebis (m-phenylenecarbonylimino)]bis[5-hydroxy-2,7-naphthalenedisulfonic acid]tetrasodium salt] | 5 | 2 | 2 | -31% | 35
2 | Cc1ccc(C(=O)Nc2cc(S(=O)(=O)O)cc3cc(S(=O)(=O)O)cc(O)c23)cc1N [4-(3-Amino-p-toluamido)-5-hydroxy-2,7-naphthalenedisulfonic acid, disodium salt] | 5 | NEG | NEG |  | 
3 | Cc1cc(C(=O)Nc2cc(S(=O)(=O)O)cc3cc(S(=O)(=O)O)cc(O)c23)ccc1N [4-(4-Amino-m-toluamido)-5-hydroxy-2,7-naphthalenedisulfonic acid, disodium salt] | 5 | NEG | NEG | +12% | 17
4 | Cc1ccc(N)cc1C(=O)Nc1cc(S(=O)(=O)O)cc2cc(S(=O)(=O)O)cc(O)c12 [4-(5-Amino-o-toluamido)-5-hydroxy-2,7-naphthalenedisulfonic acid, disodium salt] | 2 | NEG | NEG |  | 
5 | Cc1ccc(C(=O)Nc2cc(S(=O)(=O)O)cc3cc(S(=O)(=O)O)cc(O)c23)cc1[N+](=O)[O-] [4-Hydroxy-5-(3-nitro-p-toluamido)-2,7-naphthalenedisulfonic acid, disodium salt] | 3 | NEG | NEG |  | 
6 | Cc1cc(C(=O)Nc2cc(S(=O)(=O)O)cc3cc(S(=O)(=O)O)cc(O)c23)ccc1[N+](=O)[O-] [4-Hydroxy-5-(4-nitro-3-toluamido)-2,7-naphthalenedisulfonic acid, disodium salt] | 2 | NEG | NEG | -20% | 48
7 | Cc1ccc([N+](=O)[O-])cc1C(=O)Nc1cc(S(=O)(=O)O)cc2cc(S(=O)(=O)O)cc(O)c12 [4-Hydroxy-5-(5-nitro-o-toluamido)-2,7-naphthalenedisulfonic acid, disodium salt] | 2 | NEG | NEG | -17% | 10
8 | Cc1ccc(NC(=O)Nc2cccc(C(=O)Nc3cc(S(=O)(=O)O)cc4cc(S(=O)(=O)O)cc(O)c34)c2)cc1[N+](=O)[O-] [4-Hydroxy-5-m-[3-(3-nitro-p-tolyl)ureido]benzamido-2,7-naphthalenedisulfonic acid, disodium salt] | NEG | NEG | NEG | +46% | 15
9 | O=C(Nc1cccc(C(=O)Nc2cc(S(=O)(=O)O)cc3cc(S(=O)(=O)O)cc(O)c23)c1)Nc1cccc(C(F)(F)F)c1 [4-Hydroxy-5-m-[3-(α,α,α-trifluoro-m-tolyl)ureido]benzamido-2,7-naphthalenedisulfonic acid, disodium salt] | 1 | NEG | NEG | -6% | 5
10 | O=C(Nc1ccc(S(=O)(=O)F)cc1)Nc1cccc(C(=O)Nc2cc(S(=O)(=O)[O-])cc3cc(S(=O)(=O)[O-])cc(O)c23)c1.[Na+].[Na+] [4-{m-{3-[p-(Fluorosulfonyl)phenyl]ureido}benzamido}-5-hydroxy-2,7-naphthalenedisulfonic acid, disodium salt] | 4 | NEG | NEG |  | 
11 | O=C(Nc1cccc(C(=O)Nc2cc(S(=O)(=O)[O-])cc3cc(S(=O)(=O)[O-])cc(O)c23)c1)Nc1cccc(C(=O)Nc2cc(S(=O)(=O)[O-])cc3cc(S(=O)(=O)[O-])cc(O)c23)c1.[Na+].[Na+].[Na+].[Na+] [5,5'-[Ureylenebis(m-phenylenecarbonylimino)]bis[4-hydroxy-2,7-naphthalenedisulfonic acid] tetrasodium salt] | 6 | 1 | 2 |  | 
